In patent publication US11230540B2, “Substituted triazole derivatives and uses thereof” (Bayer Pharma Aktiengesellschaft, priority 2017, dated 2022):

Assays:
[1] = biological target: T1, human V1a receptor (Homo sapiens, UniProt P37288); experiment: Cellular in vitro assay for vasopressin receptor activity, V1a receptor cell line (aequorin luminescence); format: cell-based; settings: for IC50: CHO cell line transfected with human V1a receptor, [Arg8]-vasopressin at EC50 concentration, read-out: IC50 hV1a; for ratio IC50 hV2/hV1a: selectivity ratio of the IC50 values hV2/hV1a
T1 construct: expressed in transfected cells; host or cells: CHO K1 (Chinese hamster ovary), also stably transfected with a modified aequorin
Protocol: (§1) B-1. Cellular In Vitro Assay for Determining Vasopressin Receptor Activity
(§2) The identification of agonists and antagonists of the V1a and V2 vasopressin receptors from humans, rats and dogs as well as the quantification of the activity of the compounds of the invention is carried out using recombinant cell lines. These cell lines originally derive from a hamster's ovary epithelial cell (Chinese Hamster Ovary, CHO K1, ATCC: American Type Culture Collection, Manassas, Va. 20108, USA). The test cell lines constitutively express the human, rat or dog V1a or V2 receptors. In case of the […] V1a receptors, cells are also stably transfected with a modified form of the calcium-sensitive photoproteins aequorin (human and rat V1a) or obelin (dog V1a), which, after reconstitution with the cofactor coelenterazine, emit light when there are increases in free calcium concentrations [Rizzuto R, Simpson A W, Brini M, Pozzan T, Nature 358, 325-327 (1992); Illarionov B A, Bondar V S, Illarionova V A, Vysotski E S, Gene 153 (2), 273-274 (1995)]. The resulting vasopressin receptor cells react to stimulation of the recombinantly expressed V1a receptors by intracellular release of calcium ions, which can be quantified by the resulting photoprotein luminescence. The Gs-coupled V2 receptors are stably transfected into cell lines expressing the gene for firefly luciferase under control of a CRE-responsible promoter. Activation of V2 receptors induces the activation of the CRE-responsive promoter via cAMP increase, thereby inducing the expression of firefly luciferase. The light emitted by photoproteins of V1a cell lines as well as the light emitted by firefly luciferase of V2 cell lines corresponds to the activation or inhibition of the respective vasopressin receptor. The bioluminescence of the cell lines is detected using a suitable luminometer [Milligan G, Marshall F, Rees S, Trends in Pharmacological Sciences 17, 235-237 (1996)].
Vasopressin V1a Receptor Cell Lines:
On the day before the assay, the cells are plated out in culture medium (DMEM/F12, 2% FCS, 2 mM glutamine, 10 mM HEPES, 5 μg/ml coelenterazine) in 384-well microtiter plates and kept in a cell incubator (96% humidity, 5% v/v CO2, 37° C.). On the day of the assay, test compounds in various concentrations are placed for 10 minutes in the wells of the microtiter plate before the agonist [Arg^8]-vasopressin at EC50 concentration is added. The resulting light signal is measured immediately in a luminometer.
(§3) Table 1A below lists individual IC50 values for the compounds of the invention (including racemic mixtures as well as separated enantiomers) that were obtained from cell lines transfected with the human V1a or V2 receptor: […]

[2] = biological target: T2, human V2 receptor (Homo sapiens, UniProt P30518); experiment: Cellular in vitro assay for vasopressin receptor activity, V2 receptor cell line (CRE-luciferase); format: cell-based; settings: CHO cell line transfected with human V2 receptor; [Arg8]-vasopressin at EC50 concentration; read-out: IC50 hV2
T2 construct: expressed in transfected cells; host or cells: CHO K1 (Chinese hamster ovary) expressing firefly luciferase under a CRE-responsive promoter
Protocol: as §1, §2
Vasopressin V2 Receptor Cell Lines:
On the day before the assay, the cells are plated out in culture medium (DMEM/F12, 2% FCS, 2 mM glutamine, 10 mM HEPES) in 384-well microtiter plates and kept in a cell incubator (96% humidity, 5% v/v CO2, 37° C.). On the day of the assay, test compounds in various concentrations and the agonist [Arg^8]-vasopressin at EC50 concentration are added together to the wells, and plates are incubated for 3 hours in a cell incubator. Upon addition of the cell lysis reagent Triton™ and the substrate luciferin, luminescence of firefly luciferase is measured in a luminometer.
as §3

T1 sequence (P37288 whole entry): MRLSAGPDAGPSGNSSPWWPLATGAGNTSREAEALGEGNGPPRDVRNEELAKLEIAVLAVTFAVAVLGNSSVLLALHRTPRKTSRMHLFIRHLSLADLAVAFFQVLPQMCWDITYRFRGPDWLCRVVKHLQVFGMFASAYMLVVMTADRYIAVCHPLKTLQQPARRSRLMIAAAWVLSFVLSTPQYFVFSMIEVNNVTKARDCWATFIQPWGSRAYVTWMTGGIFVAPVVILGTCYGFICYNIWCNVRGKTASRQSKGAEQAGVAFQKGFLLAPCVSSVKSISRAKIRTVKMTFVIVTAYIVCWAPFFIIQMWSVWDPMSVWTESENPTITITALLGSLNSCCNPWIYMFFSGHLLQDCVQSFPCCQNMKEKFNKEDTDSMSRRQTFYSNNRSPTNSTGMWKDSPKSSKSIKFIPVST
T2 sequence (P30518 whole entry): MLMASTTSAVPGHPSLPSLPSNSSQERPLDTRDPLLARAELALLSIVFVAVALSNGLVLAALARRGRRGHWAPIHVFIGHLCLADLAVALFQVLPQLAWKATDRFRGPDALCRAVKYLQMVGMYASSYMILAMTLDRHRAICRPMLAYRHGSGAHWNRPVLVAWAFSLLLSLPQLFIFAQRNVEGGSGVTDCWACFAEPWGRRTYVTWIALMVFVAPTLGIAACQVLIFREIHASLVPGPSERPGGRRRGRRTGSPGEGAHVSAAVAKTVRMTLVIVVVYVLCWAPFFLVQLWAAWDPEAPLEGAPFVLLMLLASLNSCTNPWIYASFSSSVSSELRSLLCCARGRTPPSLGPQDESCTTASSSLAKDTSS

Row | IC50 [1] [nM] | ratio IC50 hV2/hV1a [1] | IC50 [2] [nM] | SMILES
1 | 2.95 | 8.8 | 26 | CC(C)(C)NC(=O)c1nc(Cn2nc(-c3ccc(Cl)cc3)n(C[C@H](O)C(F)(F)F)c2=O)nn1-c1ccccc1Cl [Example 28, N-tert-Butyl-1-(2-chlorophenyl)-3-({3-(4-chlorophenyl)-5-oxo-4-[(2S)-3,3,3-trifluoro-2-hydroxypropyl]-4,5-dihydro-1H-1,2,4-triazol-1-yl}methyl)-1H-1,2,4-triazole-5-carboxamide]
2 | 0.49 | 845.4 | 410 | CC(C)(N)CNC(=O)c1nc(Cn2nc(-c3ccc(Cl)cc3)n(C[C@H](O)C(F)(F)F)c2=O)nn1-c1cnccc1Cl [Example 4, N-(2-Amino-2-methylpropyl)-3-({3-(4-chlorophenyl)-5-oxo-4-[(2S)-3,3,3-trifluoro-2-hydroxypropyl]-4,5-dihydro-1H-1,2,4-triazol-1-yl}methyl)-1-(4-chloropyridin-3-yl)-1H-1,2,4-triazole-5-carboxamide]
3 | 0.7 | 100.0 | 70 | CC(C)(C)CNC(=O)c1nc(Cn2nc(-c3ccc(Cl)cc3)n(C[C@H](O)C(F)(F)F)c2=O)nn1-c1ncccc1C(F)(F)F [Example 50, 3-({3-(4-Chlorophenyl)-5-oxo-4-[(2S)-3,3,3-trifluoro-2-hydroxypropyl]-4,5-dihydro-1H-1,2,4-triazol-1-yl}methyl)-N-(2,2-dimethylpropyl)-1-[3-(trifluoromethyl)pyridin-2-yl]-1H-1,2,4-triazole-5-carboxamide]
4 | 9.1 | 180.2 | 1640 | NNC(=O)c1nc(Cn2nc(-c3ccc(Cl)cc3)n(C[C@H](O)C(F)(F)F)c2=O)nn1-c1ncccc1OC(F)(F)F [Example 11, 3-({3-(4-Chlorophenyl)-5-oxo-4-[(2S)-3,3,3-trifluoro-2-hydroxypropyl]-4,5-dihydro-1H-1,2,4-triazol-1-yl}methyl)-1-[3-(trifluoromethoxy)pyridin-2-yl]-1H-1,2,4-triazole-5-carbohydrazide]
5 | 4.15 | 25.5 | 106 | CC(C)(C)NC(=O)c1nc(Cn2nc(-c3ccc(Cl)cc3)n(C[C@H](O)C(F)(F)F)c2=O)nn1-c1ncccc1Cl [Example 27, N-tert-Butyl-3-({3-(4-chlorophenyl)-5-oxo-4-[(2S)-3,3,3-trifluoro-2-hydroxypropyl]-4,5-dihydro-1H-1,2,4-triazol-1-yl}methyl)-1-(3-chloropyridin-2-yl)-1H-1,2,4-triazole-5-carboxamide]
6 | 34.6 | 0.2 | 6.95 | CNC(=O)c1nc(Cn2nc(-c3ccc(Cl)cc3)n(C[C@H](O)C(F)(F)F)c2=O)nn1-c1cccc(Cl)c1 [Example 34, 1-(3-Chlorophenyl)-3-({3-(4-chlorophenyl)-5-oxo-4-[(2S)-3,3,3-trifluoro-2-hydroxypropyl]-4,5-dihydro-1H-1,2,4-triazol-1-yl}methyl)-N-methyl-1H-1,2,4-triazole-5-carboxamide]
7 | 288 | 5.1 | 1470 | CC(C)(N)CNC(=O)c1nc(Cn2nc(-c3ccc(Cl)cc3)n(C[C@H](O)C(F)(F)F)c2=O)nn1-c1ncccc1C(F)(F)F [Example 46, N-(2-Amino-2-methylpropyl)-3-({3-(4-chlorophenyl)-5-oxo-4-[(2S)-3,3,3-trifluoro-2-hydroxypropyl]-4,5-dihydro-1H-1,2,4-triazol-1-yl}methyl)-1-[3-(trifluoromethyl)pyridin-2-yl]-1H1,2,4-triazole-5-carboxamide]

Continued, compound first:

Row | SMILES | IC50 [1] [nM] | ratio IC50 hV2/hV1a [1] | IC50 [2] [nM]
8 | CNC(=O)c1nc(Cn2nc(-c3ccc(Cl)cc3)n(C[C@H](O)C(F)(F)F)c2=O)nn1-c1ccccc1OC [Example 42, 3-({3-(4-Chlorophenyl)-5-oxo-4-[(2S)-3,3,3-trifluoro-2-hydroxypropyl]-4,5-dihydro-1H-1,2,4-triazol-1-yl}methyl)-1-(2-methoxyphenyl)-N-methyl-1H-1,2,4-triazole-5-carboxamide] | 1.12 | 7.4 | 8.29
9 | O=C(NCC(F)(F)F)c1nc(Cn2nc(-c3ccc(Cl)cc3)n(C[C@H](O)C(F)(F)F)c2=O)nn1-c1ncccc1C(F)(F)F [Example 47, 3-({3-(4-Chlorophenyl)-5-oxo-4-[(2S)-3,3,3-trifluoro-2-hydroxypropyl]-4,5-dihydro-1H-1,2,4-triazol-1-yl}methyl)-N-(2,2,2-trifluoroethyl)-1-[3-(trifluoromethyl)pyridin-2-yl]-1H-1,2,4-triazole-5-carboxamide] | 0.92 | 41.8 | 38.5
10 | O=C(c1nc(Cn2nc(-c3ccc(Cl)cc3)n(C[C@H](O)C(F)(F)F)c2=O)nn1-c1ccccc1Cl)N1CCOCC1 [Example 30, 5-(4-Chlorophenyl)-2-{[1-(2-chlorophenyl)-5-(morpholin-4-ylcarbonyl)-1H-1,2,4-triazol-3-yl]methyl}-4-[(2S)-3,3,3-trifluoro-2-hydroxypropyl]-2,4-dihydro-3H-1,2,4-triazol-3-one] | 1.01 | 29.0 | 29.3
11 | O=C(c1nc(Cn2nc(-c3ccc(Cl)cc3)n(C[C@H](O)C(F)(F)F)c2=O)nn1CCC(F)(F)F)N1CCNC(C(F)(F)F)C1 (mixture of isomers) [Example 25, 5-(4-Chlorophenyl)-4-[(2S)-3,3,3-trifluoro-2-hydroxypropyl]-2-{[5-{[3-(trifluoromethyl)piperazin-1-yl]carbonyl}-1-(3,3,3-trifluoropropyl)-1H-1,2,4-triazol-3-yl]methyl}-2,4-dihydro-3H-1,2,4-triazol-3-one] | 35 | 4.9 | 170
12 | COCCNC(=O)c1nc(Cn2nc(-c3ccc(Cl)cc3)n(C[C@H](O)C(F)(F)F)c2=O)nn1-c1cccc(F)c1 [Example 37, 3-({3-(4-Chlorophenyl)-5-oxo-4-[(2S)-3,3,3-trifluoro-2-hydroxypropyl]-4,5-dihydro-1H-1,2,4-triazol-1-yl}methyl)-1-(3-fluorophenyl)-N-(2-methoxyethyl)-1H-1,2,4-triazole-5-carboxamide] | 38.6 | 0.6 | 23.4
13 | O=C(c1nc(Cn2nc(-c3ccc(Cl)cc3)n(C[C@H](O)C(F)(F)F)c2=O)nn1-c1cccc(Cl)c1)N1CCOCC1 [Example 36, 5-(4-Chlorophenyl)-2-{[1-(3-chlorophenyl)-5-(morpholin-4-ylcarbonyl)-1H-1,2,4-triazol-3-yl]methyl}-4-[(2S)-3,3,3-trifluoro-2-hydroxypropyl]-2,4-dihydro-3H-1,2,4-triazol-3-one] | 18.3 | 0.7 | 12.8
14 | CC1(O)CCN(C(=O)c2nc(Cn3nc(-c4ccc(Cl)cc4)n(C[C@H](O)C(F)(F)F)c3=O)nn2-c2ncccc2C(F)(F)F)C1 (stereo partly drawn) [Example 57, 5-(4-Chlorophenyl)-2-({5-[(35)-3-hydroxy-3-methylpyrrolidine-1-carbonyl]-1-[3-(trifluoromethyl)pyridin-2-yl]-1H-1,2,4-triazol-3-yl}methyl)-4-[(2S)-3,3,3-trifluoro-2-hydroxypropyl]-2,4-dihydro-3H-1,2,4-triazol-3-one] | 2.75 | 160.0 | 440
15 | O=CN1CCC(NC(=O)c2nc(Cn3nc(-c4ccc(Cl)cc4)n(C[C@H](O)C(F)(F)F)c3=O)nn2-c2cnccc2Cl)C1 (mixture of isomers) [Example 13, 3-({3-(4-Chlorophenyl)-5-oxo-4-[(2S)-3,3,3-trifluoro-2-hydroxypropyl]-4,5-dihydro-1H-1,2,4-triazol-1-yl}methyl)-1-(4-chloropyridin-3-yl)-N-[1-formylpyrrolidin-3-yl]-1H-1,2,4-triazole-5-carboxamide] | 1.5 | 190.0 | 285
